Experimental data from ChEMBL document CHEMBL1201862, “PubChem BioAssay data set” (2004).
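Cultured in 96-well plates, cells were exposed to test compound for 48 hours across five concentrations. The concentration for 50% growth inhibition is given as GI50.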 Activity calls are given as the source filed them. No stated cut-off is given here; in the data, active = GI50 up to about 1.1 µM and inactive = higher.

Legend:
Assay in all cases: NCI-60 cell line screen, 48 h
A549 = tested on: A549
ACHN = tested on: ACHN
CCRF-CEM = tested on: CCRF-CEM
COLO 205 = tested on: COLO 205
EKVX = tested on: EKVX
HCT-116 = tested on: HCT-116
HT-29 = tested on: HT-29
KM12 = tested on: KM12
LOX IMVI = tested on: LOX IMVI
M14 = tested on: M14
NCI-H226 = tested on: NCI-H226
NCI-H522 = tested on: NCI-H522
SF-539 = tested on: SF-539
SK-OV-3 = tested on: SK-OV-3
SNB-19 = tested on: SNB-19
SNB-75 = tested on: SNB-75
SW-620 = tested on: SW-620
U-251 = tested on: U-251
UACC-62 = tested on: UACC-62
RPMI-8226 = tested on: RPMI-8226

Measured: GI50

O=c1c2ccccc2n2c(S)nnc2n1-c1ccccc1
inactive: A549 > 100 µM | ACHN > 100 µM | CCRF-CEM > 100 µM | COLO 205 > 100 µM | EKVX > 100 µM | HCT-116 > 100 µM | HT-29 > 100 µM | KM12 > 100 µM | LOX IMVI > 100 µM | M14 > 100 µM | NCI-H226 > 100 µM | NCI-H522 > 100 µM | SF-539 > 100 µM | SK-OV-3 > 100 µM | SNB-19 > 100 µM | SNB-75 21.1 µM | SW-620 > 100 µM | U-251 > 100 µM | UACC-62 > 100 µM

Oc1ccccc1/C=N/Nc1nc(N/N=C/c2ccccc2O)nc(N/N=C/c2ccccc2O)n1
inactive: A549 > 100 µM | ACHN 69.7 µM | COLO 205 > 100 µM | EKVX > 100 µM | HCT-116 42.2 µM | HT-29 69.7 µM | KM12 > 100 µM | LOX IMVI > 100 µM | M14 > 100 µM | NCI-H226 58.7 µM | NCI-H522 31.6 µM | SF-539 > 100 µM | SK-OV-3 71.9 µM | SNB-19 > 100 µM | SW-620 > 100 µM | U-251 47.1 µM | UACC-62 51.1 µM

O=C1C2=C(CCCC2)Nc2cccc3ncn1c23
inactive: A549 > 100 µM | ACHN > 100 µM | CCRF-CEM > 100 µM | COLO 205 > 100 µM | EKVX > 100 µM | HCT-116 > 100 µM | KM12 > 100 µM | LOX IMVI > 100 µM | M14 > 100 µM | NCI-H522 > 100 µM | RPMI-8226 > 100 µM | SF-539 > 100 µM | SK-OV-3 > 100 µM | SNB-19 > 100 µM | SW-620 > 100 µM | U-251 > 100 µM | UACC-62 > 100 µM

CCN(CC)CCOc1ccc(N2Cc3cc(OC)c(OC)cc3C2=O)cc1
inactive: A549 > 100 µM | ACHN > 100 µM | CCRF-CEM > 100 µM | COLO 205 > 100 µM | EKVX > 100 µM | HCT-116 > 100 µM | HT-29 > 100 µM | KM12 > 100 µM | LOX IMVI > 100 µM | M14 > 100 µM | NCI-H226 > 100 µM | NCI-H522 > 100 µM | RPMI-8226 > 100 µM | SF-539 > 100 µM | SK-OV-3 > 100 µM | SNB-19 > 100 µM | SW-620 > 100 µM | U-251 > 100 µM | UACC-62 > 100 µM

Cc1c(C(Cc2ccccc2N(C)C(=O)/C=C\C(=O)O)c2c[nH]c3ccccc23)c2ccccc2n1C (stereo not given)
inactive: A549 16.6 µM | ACHN 17.1 µM | CCRF-CEM 14.9 µM | COLO 205 14.5 µM | EKVX 16.3 µM | HCT-116 15.1 µM | HT-29 15.5 µM | KM12 15.6 µM | LOX IMVI 15.3 µM | M14 15.4 µM | NCI-H226 19.3 µM | NCI-H522 15.1 µM | SF-539 16.6 µM | SK-OV-3 21.7 µM | SNB-19 18 µM | SNB-75 16.5 µM | SW-620 18.1 µM | U-251 16.4 µM | UACC-62 17.2 µM

CC(=O)Oc1ccn2nc(C)c(Br)c2c1Br
inactive: A549 23.1 µM | ACHN 17.6 µM | CCRF-CEM 21.6 µM | COLO 205 19.4 µM | EKVX 29 µM | HCT-116 23 µM | HT-29 20.7 µM | KM12 33.7 µM | LOX IMVI 18.4 µM | M14 18.9 µM | NCI-H226 > 43.9 µM | NCI-H522 17.6 µM | SF-539 21.2 µM | SNB-19 49.9 µM | SNB-75 22.1 µM | SW-620 30.5 µM | U-251 35.1 µM | UACC-62 17.7 µM

N#CC(C#N)=C1C(=O)NC(N)=C1C#N
inactive: A549 > 100 µM | ACHN > 100 µM | CCRF-CEM > 100 µM | COLO 205 > 100 µM | EKVX > 100 µM | HCT-116 > 100 µM | HT-29 > 100 µM | KM12 > 100 µM | LOX IMVI > 100 µM | M14 > 100 µM | NCI-H226 > 100 µM | NCI-H522 > 100 µM | RPMI-8226 > 100 µM | SK-OV-3 > 100 µM | SNB-19 > 100 µM | SW-620 > 100 µM | U-251 > 100 µM | UACC-62 > 100 µM

[N-]=[N+]=NC1CC(n2cc(COCC(F)(F)F)c(=O)[nH]c2=O)OC1CO (stereo not given)
inactive: A549 > 100 µM | ACHN > 100 µM | CCRF-CEM > 100 µM | COLO 205 > 100 µM | EKVX > 100 µM | HT-29 > 100 µM | KM12 > 100 µM | LOX IMVI > 100 µM | M14 > 100 µM | NCI-H522 > 100 µM | RPMI-8226 > 100 µM | SF-539 > 100 µM | SK-OV-3 > 100 µM | SNB-19 > 100 µM | SNB-75 > 100 µM | SW-620 > 100 µM | U-251 > 100 µM | UACC-62 > 100 µM
